Source: ChEMBL document CHEMBL1146291, “Structure-activity delineation of quinones related to the biologically active Calothrixin B” (Bioorg Med Chem Lett, 2007)

Assays:
HeLa = assay: Cytotoxicity against human HeLa cells by MTT assay; assay type: functional, cell-based
P388 = assay: Cytotoxicity against mouse P388 cells by MTT assay; assay type: functional, cell-based
[1] = Cytotoxicity against CV1 cells by MTT assay; assay type: cell-based; details: Chlorocebus aethiops, CV-1

Row | SMILES | EC50 (HeLa) [µM] | EC50 (P388) [µM] | EC50 [1] [µM]
1 | O=C1c2[nH]c3ccccc3c2C(=O)c2ccc3ccccc3c21 | 1.5 | > 50 | > 50
2 | O=C1c2ccccc2C(=O)c2c1[nH]c1ccccc21 [BENZOCARBAZOLEDIONE] | 1.8 | > 50 | > 50
3 | CC1=CC(=O)c2c([nH]c3ccccc23)C1=O | 7 | 1 | 1.7
4 | O=C1C=CC(=O)c2c1[nH]c1ccccc21 | > 50 | > 50 | > 50
5 | CC1=CC(=O)c2[nH]c3ccccc3c2C1=O [MURRAYAQUINONE A] | 13 | 2.3 | 10
6 | O=C1c2[nH]c3ccccc3c2C(=O)c2cnc3ccccc3c21 [CALOTHRIXIN B] | 0.25 | 9 | 2.4
